Source: patent US6864256B2, “Methods for the control of insect pests” (Tria Specialty Products, LLC, priority 2002, dated 2005)
Where “and” joins values, the source holds several entries; their conditions need not be identical. Equal values may be shown once. Read-outs that look alike come from different tables or passages of the source. Marks after values point to notes of the source that are not given here.

Tests used:
[1] = system: dung-breeding flies; details: cattle, cited from earlier work
[2] = system: house fly; details: feed-through to fattening porkers, traditional pens with straw bedding; cited from earlier work
[3] = system: Musca domestica (Hilmer Strain) larvae; experiment: House fly bioassay: adult fly emergence from larvae exposed to feces of cyromazine-treated horses; format: in vivo; details: for Adult Fly Emergence from Larvae Hatched, Rep 1-4: 600 mg/day oral, after 3 weeks
Protocol: (§1) Cyromazine (2-cycloproplyamino-4,6-diamino-s-triazine) was obtained as a purified chemical composition at greater than 98% cyromazine (technical cyromazine). 600 mg of cyromazine was orally administered to each horse daily by top-dressing horse feed, for a continuous daily administration during fly season. In this example, horses residing in North Carolina, U.S. were treated during the local fly season, lasting approximately March through October of the calendar year.
(§2) In one study, cyromazine administration was stopped, and 5 manure samples were obtained from the same horse at 24, 48, 72, 96 and 120 hours post-dosing to monitor the duration of cyromazine at an insecticidal amount in the feces. In another study, single manure samples were collected from each individual horse (n=4) <24 hours after dosing with cyromazine, i.e., before another daily dose was given. Untreated control horse manure was collected from a nearby horse ranch. Samples were shipped and kept in the refrigerator until the house fly bioassay was set-up.
The replicates containing hatched larvae were then returned to the environmental chamber in the presence of the test feces samples to determine the insecticidal effect of the cyromazine in the feces. Adult house fly emergence from larvae was determined after 3 weeks.
(§3) The percent larval hatch, adult fly emergence and corrected percent effect were calculated and recorded. The percentage of eggs hatching is calculated as the mean number of eggs hatched after 2 days per test divided by 50 (the total eggs input), and multiplied by 100. The percentage of adult fly emergence from larvae hatched (% larvae emerging as flies) is calculated as the mean number of adult flies emerging after 3 weeks per test divided by the mean number of larvae hatching on test day 2, and multiplied by 100. The percentage of larvae not developing is calculated as the mean number of larvae not developing per test divided by the mean number of larvae hatching on test day 2, and multiplied by 100. Thus, the data in Table 2 refers back to the data in Table 1, and the data in Table 4 refers back to the data in Table 3.

[4] = system: house flies; details: added to the feed of mink; cited from earlier work
[5] = system: immature stages of flies; details: dairy calves, outdoor hutches, dose per body weight; cited from earlier work
[6] = Tolerability of daily oral cyromazine in horses; format: in vivo, horse; details: 600 mg daily oral by top-dressing feed
Protocol: as §1, §2

[7] = system: Musca domestica (Hilmer Strain) eggs; experiment: House fly bioassay: larval hatch from 50 eggs; format: in vivo; details: for Larval Hatch/50 Eggs, Rep 1-4: scored after 2 days
Protocol: as §1, §2
Approximately fifty (50) Musca domestica (Hilmer Strain) eggs <24 hours old were counted and placed on filter paper discs in each of four replicates (rep) per cyromazine treatment group or control. Each replicate was covered with a paper towel and placed in the environmental chamber at 80° F. (27° C.), 80% relative humidity and a 14:10 (light:dark) photoperiod. The eggs were scored for larval hatch after two days and a layer of wood shavings added as a moisture barrier and a dry substrate for pupation.
as §3

[8] = in vivo; cited from earlier work
[9] = 120 hour sample (4 reps), first study
[10] = feces of horse Barney, <24 hours post-dosing
[11] = feces of horse Fancy, <24 hours post-dosing
[12] = feces of horse Phalete, <24 hours post-dosing
[13] = feces of horse Precious, <24 hours post-dosing
[14] = horse feces 24 hours post-dosing
[15] = horse feces 48 hours post-dosing
[16] = horse feces 72 hours post-dosing
[17] = horse feces 96 hours post-dosing
[18] = horse feces 120 hours post-dosing
[19] = horse Barney, <24 hours post-dosing group
[20] = horse Fancy, <24 hours post-dosing group
[21] = horse Phalete, <24 hours post-dosing group
[22] = horse Precious, <24 hours post-dosing group
[23] = same horse, 600 mg/day oral, 24 hours post-dosing group
[24] = same horse, 600 mg/day oral, 48 hours post-dosing group
[25] = same horse, 600 mg/day oral, 72 hours post-dosing group
[26] = same horse, 600 mg/day oral, 96 hours post-dosing group
[27] = same horse, 600 mg/day oral, 120 hours post-dosing group

SMILES: COC(C)(C)CCC[C@H](C)C/C=C/C(C)=C/C(=O)OC(C)C (racemic) [methoprene]
- inhibition of development in manure ([1]; drinking water): Complete inhibition of development in manure
- inhibition of development in manure ([1]; mineral blocks): Complete inhibition of development in manure

SMILES: Nc1nc(N)nc(NC2CC2)n1 [cyromazine, 2-cyclopropylamino-4,6-diamino-s-triazine]
- adult fly development [2]: some adult flies did develop
- flies emerged [3, 9]: 1
- flies emerged, percent [3, 9]: 0.2%
- insecticidal amount in the feces ([3]; feces obtained at 24, 48, 72, 96 and 120 hours post-dosing): An insecticidal amount of cyromazine was present in the feces
- Adult Fly Emergence from Larvae Hatched, Rep 1-4 [3, 10]: 0
- # Larvae not Developing [3, 10]: 133
- % Larvae Emerging as Flies [3, 10]: 0%
- % Larvae not Developing [3, 10]: 100.0%
- Adult Fly Emergence from Larvae Hatched, Σ [3, 10]: 0
- Adult Fly Emergence from Larvae Hatched, Rep 1-4 [3, 11]: 0
- # Larvae not Developing [3, 11]: 147
- % Larvae Emerging as Flies [3, 11]: 0%
- % Larvae not Developing [3, 11]: 100.0%
- Adult Fly Emergence from Larvae Hatched, Σ [3, 11]: 0
- Adult Fly Emergence from Larvae Hatched, Rep 1-4 [3, 12]: 0
- # Larvae not Developing [3, 12]: 167
- % Larvae Emerging as Flies [3, 12]: 0%
- % Larvae not Developing [3, 12]: 100.0%
- Adult Fly Emergence from Larvae Hatched, Σ [3, 12]: 0
- Adult Fly Emergence from Larvae Hatched, Rep 1-4 [3, 13]: 0
- # Larvae not Developing [3, 13]: 179
- % Larvae Emerging as Flies [3, 13]: 0%
- % Larvae not Developing [3, 13]: 100.0%
- Adult Fly Emergence from Larvae Hatched, Σ [3, 13]: 0
- adult fly emergence from hatched larvae ([3]; first study, same horse sampled at 5 time points): completely inhibited adult fly emergence
- # Larvae not Developing [3, 14]: 165
- % Larvae Emerging as Flies [3, 14]: 0%
- % Larvae not Developing [3, 14]: 100.0%
- Adult Fly Emergence from Larvae Hatched, Σ [3, 14]: 0
- Adult Fly Emergence from Larvae Hatched, Rep 1-4 [3, 14]: 0
- # Larvae not Developing [3, 15]: 115
- % Larvae Emerging as Flies [3, 15]: 0%
- % Larvae not Developing [3, 15]: 100.0%
- Adult Fly Emergence from Larvae Hatched, Σ [3, 15]: 0
- Adult Fly Emergence from Larvae Hatched, Rep 1-4 [3, 15]: 0
- # Larvae not Developing [3, 16]: 101
- % Larvae Emerging as Flies [3, 16]: 0%
- % Larvae not Developing [3, 16]: 100.0%
- Adult Fly Emergence from Larvae Hatched, Σ [3, 16]: 0
- Adult Fly Emergence from Larvae Hatched, Rep 1-4 [3, 16]: 0
- # Larvae not Developing [3, 17]: 150
- % Larvae Emerging as Flies [3, 17]: 0%
- % Larvae not Developing [3, 17]: 100.0%
- Adult Fly Emergence from Larvae Hatched, Σ [3, 17]: 0
- Adult Fly Emergence from Larvae Hatched, Rep 1-4 [3, 17]: 0
- # Larvae not Developing [3, 18]: 121
- % Larvae Emerging as Flies [3, 18]: 0.8%
- % Larvae not Developing [3, 18]: 99.8%
- Adult Fly Emergence from Larvae Hatched, Σ [3, 18]: 1
- insecticidal activity of manure samples ([3]; horses orally administered cyromazine, feces without urine): high degree of insecticidal activity
- inhibition of house fly development ([3]; second study, all 4 horses, <24 hours post-dosing): 100%
- prevention of breeding of house flies [4]: ineffective
- doses preventing development of immature stages of flies in straw bedding [5]: 0.5 to 1.0 mg/kg
- tolerability, side effects [6]: well tolerated at this dosage, and no side effects were seen
- Larval Hatch/50 Eggs, Rep 1-4 ([7]; horse Barney, 600 mg/day oral, <24 hours post-dosing group): 25 and 33 and 43 and 32
- % Eggs Hatching [7, 19]: 66.5%
- Larval Hatch/50 Eggs, Mean [7, 19]: 33.25
- Larval Hatch/50 Eggs, Σ [7, 19]: 133
- Larval Hatch/50 Eggs, Rep 1-4 ([7]; horse Fancy, 600 mg/day oral, <24 hours post-dosing group): 47 and 33 and 32 and 35
- % Eggs Hatching [7, 20]: 73.5%
- Larval Hatch/50 Eggs, Mean [7, 20]: 36.75
- Larval Hatch/50 Eggs, Σ [7, 20]: 147
- % Eggs Hatching [7, 21]: 83.5%
- Larval Hatch/50 Eggs, Mean [7, 21]: 41.75
- Larval Hatch/50 Eggs, Σ ([7]; horse Phalete, <24 hours post-dosing group, sum decreased by 7 (footnote)): 167*
- Larval Hatch/50 Eggs, Rep 1-4 ([7]; horse Precious, 600 mg/day oral, <24 hours post-dosing group): 49 and 37 and 44
- % Eggs Hatching [7, 22]: 89.5%
- Larval Hatch/50 Eggs, Mean [7, 22]: 44.75
- Larval Hatch/50 Eggs, Σ [7, 22]: 179
- % Eggs Hatching [7, 23]: 82.5%
- Larval Hatch/50 Eggs, Mean [7, 23]: 41.25
- Larval Hatch/50 Eggs, Σ [7, 23]: 165
- Larval Hatch/50 Eggs, Rep 1-4 [7, 23]: 40 and 35 and 42 and 48
- % Eggs Hatching [7, 24]: 57.5%
- Larval Hatch/50 Eggs, Mean [7, 24]: 28.75
- Larval Hatch/50 Eggs, Σ [7, 24]: 115
- Larval Hatch/50 Eggs, Rep 1-4 [7, 24]: 31 and 21 and 30 and 33
- % Eggs Hatching [7, 25]: 50.5%
- Larval Hatch/50 Eggs, Mean [7, 25]: 25.25
- Larval Hatch/50 Eggs, Σ [7, 25]: 101
- Larval Hatch/50 Eggs, Rep 1-4 [7, 25]: 27 and 35 and 18 and 21
- % Eggs Hatching [7, 26]: 75.0%
- Larval Hatch/50 Eggs, Mean [7, 26]: 37.50
- Larval Hatch/50 Eggs, Σ [7, 26]: 150
- Larval Hatch/50 Eggs, Rep 1-4 [7, 26]: 40 and 38 and 34
- % Eggs Hatching [7, 27]: 61.0%
- Larval Hatch/50 Eggs, Mean [7, 27]: 30.50
- Larval Hatch/50 Eggs, Σ [7, 27]: 122
- Larval Hatch/50 Eggs, Rep 1-4 [7, 27]: 38 and 25 and 31 and 28
- share of all cyromazine excreted found in urine [8]: 95%
